# Laboratory results as given in patent US20260285875A1, “INHIBITORS OF PARG” (858 Therapeutics, Inc., priority 2023, published 2026).
# Target: T1, cellular PARG (Homo sapiens, UniProt Q86W56)
# T1 construct: endogenous in cells; host or cells: HeLa
# Test: Nuclear PAR accumulation assay (immunofluorescence high-content imaging, MMS-treated HeLa cells)
# Type: cell-based
# Details: 1 hour compound then MMS 50 μg/mL for an additional hour
# In short: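 HeLa cells pretreated with compound for 1 h at 37° C, then given 50 μg/mL MMS for another hour. After methanol fixation, PAR was immunostained with DAPI nuclear counterstain; per-nucleus intensity and percent PAR-positive cells were imaged at 20× (≥1,000 cells/well). IC50 from four-parameter logistic fit.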
# T1 sequence (Q86W56 whole entry): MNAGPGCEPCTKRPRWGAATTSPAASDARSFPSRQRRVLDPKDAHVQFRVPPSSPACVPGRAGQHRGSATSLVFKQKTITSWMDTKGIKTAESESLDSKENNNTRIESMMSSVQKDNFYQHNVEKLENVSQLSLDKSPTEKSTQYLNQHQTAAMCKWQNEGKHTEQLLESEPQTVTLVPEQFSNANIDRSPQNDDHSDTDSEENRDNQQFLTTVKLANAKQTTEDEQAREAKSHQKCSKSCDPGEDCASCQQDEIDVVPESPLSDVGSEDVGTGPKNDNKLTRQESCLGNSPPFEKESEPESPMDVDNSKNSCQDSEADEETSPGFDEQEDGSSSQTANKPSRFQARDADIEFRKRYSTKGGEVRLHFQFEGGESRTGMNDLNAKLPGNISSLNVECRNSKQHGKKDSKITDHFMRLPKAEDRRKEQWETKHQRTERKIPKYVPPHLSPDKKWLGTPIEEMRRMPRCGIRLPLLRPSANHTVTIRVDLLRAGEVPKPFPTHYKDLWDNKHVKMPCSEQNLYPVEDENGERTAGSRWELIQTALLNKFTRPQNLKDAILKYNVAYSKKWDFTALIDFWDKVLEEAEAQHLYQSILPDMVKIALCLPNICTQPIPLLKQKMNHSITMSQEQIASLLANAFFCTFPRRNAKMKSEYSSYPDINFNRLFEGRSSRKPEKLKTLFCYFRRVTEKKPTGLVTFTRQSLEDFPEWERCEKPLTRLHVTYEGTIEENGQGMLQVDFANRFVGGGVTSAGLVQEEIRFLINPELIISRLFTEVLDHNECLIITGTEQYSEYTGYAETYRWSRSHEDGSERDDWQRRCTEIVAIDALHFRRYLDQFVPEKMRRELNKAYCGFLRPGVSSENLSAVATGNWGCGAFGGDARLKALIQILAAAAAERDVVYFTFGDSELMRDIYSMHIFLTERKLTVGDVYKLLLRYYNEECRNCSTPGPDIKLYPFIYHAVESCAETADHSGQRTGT
row,SMILES,IC50 [µM]
1,"C[C@@H]1CN=C2N(Cc3ccnc(/C=C/CN(C)C)c3)C(=O)c3cc(S(=O)(=O)NC4(C)CC4)ccc3N21 [Example 267, (R,E)-4-((2-(3-(dimethylamino)prop-1-en-1-yl)pyridin-4-yl)methyl)-1-methyl-N-(1-methylcyclopropyl)-5-oxo-1,2,4,5-tetrahydroimidazo[1,2-a]quinazoline-7-sulfonamide]",1 to 10
2,"[2H]C([2H])(c1cnn(C)c1)N1C(=O)c2cc(S(=O)(=O)NC3(C)CC3)ccc2N2C1=NC[C@H]2C#Cc1cncc(OC)c1 [Example 269, (R)-1-((5-methoxypyridin-3-yl)ethynyl)-4-((1-methyl-1H-pyrazol-4-yl)methyl-d2)-N-(1-methylcyclopropyl)-5-oxo-1,2,4,5-tetrahydroimidazo[1,2-a]quinazoline-7-sulfonamide]",< 0.1
3,"CN(C)C1([C@@H]2CN=C3N(Cc4cnn(C)c4)C(=O)c4cc(S(=O)(=O)NC5(C)CC5)ccc4N32)CC1 [Example 270, (S)-1-(1-(dimethylamino)cyclopropyl)-4-((1-methyl-1H-pyrazol-4-yl)methyl)-N-(1-methylcyclopropyl)-5-oxo-1,2,4,5-tetrahydroimidazo[1,2-a]quinazoline-7-sulfonamide]",< 0.1
4,"[2H]C([2H])(c1cnn(C)c1)N1C(=O)c2cc(S(=O)(=O)NC3(C)CC3)c(F)cc2N2CC(C)(C)N=C21 [Example 274, 8-fluoro-2,2-dimethyl-4-((1-methyl-1H-pyrazol-4-yl)methyl-d2)-N-(1-methylcyclopropyl)-5-oxo-1,2,4,5-tetrahydroimidazo[1,2-a]quinazoline-7-sulfonamide]",< 0.1
5,"[2H]C([2H])(c1cnn(C)c1)N1C(=O)c2cc(S(=O)(=O)NC3(C)CC3)ccc2N2C1=NC[C@H]2C#Cc1cnc(C)nc1 [Example 275, (R)-4-((1-methyl-1H-pyrazol-4-yl)methyl-d2)-N-(1-methylcyclopropyl)-1-((2-methylpyrimidin-5-yl)ethynyl)-5-oxo-1,2,4,5-tetrahydroimidazo[1,2-a]quinazoline-7-sulfonamide]",< 0.1
6,"Cc1nn(C)cc1C#C[C@@H]1CN=C2N(CC3CC3)C(=O)c3cc(S(=O)(=O)NC4(C)CC4)ccc3N21 [Example 277, (R)-4-(cyclopropylmethyl)-1-((1,3-dimethyl-1H-pyrazol-4-yl)ethynyl)-N-(1-methylcyclopropyl)-5-oxo-1,2,4,5-tetrahydroimidazo[1,2-a]quinazoline-7-sulfonamide]",< 0.1
7,"C[C@@H]1CN=C2N(CC#Cc3ccc(F)nc3)C(=O)c3cc(S(=O)(=O)NC4(C)CC4)ccc3N21 [Example 278, (R)-4-(3-(6-fluoropyridin-3-yl)prop-2-yn-1-yl)-1-methyl-N-(1-methylcyclopropyl)-5-oxo-1,2,4,5-tetrahydroimidazo[1,2-a]quinazoline-7-sulfonamide]",0.1 to 1
8,"CC(=O)N1CCn2ncc(CN3C(=O)c4cc(S(=O)(=O)NC5(C)CC5)ccc4N4C3=NC[C@H]4C)c2C1 [Example 279, (R)-4-((5-acetyl-4,5,6,7-tetrahydropyrazolo[1,5-a]pyrazin-3-yl)methyl)-1-methyl-N-(1-methylcyclopropyl)-5-oxo-1,2,4,5-tetrahydroimidazo[1,2-a]quinazoline-7-sulfonamide]",0.1 to 1
9,"[2H]C([2H])(c1cnn(C)c1)N1C(=O)c2cc(S(=O)(=O)NC3(C)CC3)ccc2N2C1=NC[C@H]2C#Cc1ccc(N(C)C)nc1 [Example 280, (R)-1-((6-(dimethylamino)pyridin-3-yl)ethynyl)-4-((1-methyl-1H-pyrazol-4-yl)methyl-d2)-N-(1-methylcyclopropyl)-5-oxo-1,2,4,5-tetrahydroimidazo[1,2-a]quinazoline-7-sulfonamide]",< 0.1
10,"[2H]C([2H])(c1cnn(C)c1)N1C(=O)c2cc(S(=O)(=O)NC3(C)CC3)ccc2N2C1=NC[C@H]2C#CC1=CCNCC1 [Example 281, (R)-4-((1-methyl-1H-pyrazol-4-yl)methyl-d2)-N-(1-methylcyclopropyl)-5-oxo-1-((1,2,3,6-tetrahydropyridin-4-yl)ethynyl)-1,2,4,5-tetrahydroimidazo[1,2-a]quinazoline-7-sulfonamide]",< 0.1
11,"[2H]C([2H])(c1cnn(C)c1)N1C(=O)c2cc(S(=O)(=O)NC3(C)CC3)ccc2N2C1=N[C@H]1C[C@H](N(C)C)C[C@H]12 [Example 284, (7aS,9S,10aR)-9-(dimethylamino)-6-((1-methyl-1H-pyrazol-4-yl)methyl-d2)-N-(1-methylcyclopropyl)-5-oxo-6,7a,8,9,10,10a-hexahydro-5H-cyclopenta[4,5]imidazo[1,2-a]quinazoline-3-sulfonamide]",1 to 10
12,"[2H]C([2H])(c1cnn(C)c1)N1C(=O)c2cc(S(=O)(=O)NC3(C)CC3)ccc2N2C1=N[C@@H]1C[C@@H](N(C)C)C[C@@H]12 [Example 285, (7aR,9R,10aS)-9-(dimethylamino)-6-((1-methyl-1H-pyrazol-4-yl)methyl-d2)-N-(1-methylcyclopropyl)-5-oxo-6,7a,8,9,10,10a-hexahydro-5H-cyclopenta[4,5]imidazo[1,2-a]quinazoline-3-sulfonamide]",0.1 to 1
13,"[2H]C([2H])(c1cnn(C)c1)N1C(=O)c2cc(S(=O)(=O)NC3(C)CC3)c(NCc3ccc(OC)nc3)cc2N2C1=N[C@H]1CCC[C@H]12 [Example 286, (7aS,10aR)-2-(((6-methoxypyridin-3-yl)methyl)amino)-6-((1-methyl-1H-pyrazol-4-yl)methyl-d2)-N-(1-methylcyclopropyl)-5-oxo-6,7a,8,9,10,10a-hexahydro-5H-cyclopenta[4,5]imidazo[1,2-a]quinazoline-3-sulfonamide]",< 0.1
14,"[2H]C([2H])(c1cnn(C)c1)N1C(=O)c2cc(S(=O)(=O)NC3(C)CC3)c(NCC#Cc3cncnc3)cc2N2C1=N[C@H]1CCC[C@H]12 [Example 287, (7aS,10aR)-6-((1-methyl-1H-pyrazol-4-yl)methyl-d2)-N-(1-methylcyclopropyl)-5-oxo-2-((3-(pyrimidin-5-yl)prop-2-yn-1-yl)amino)-6,7a,8,9,10,10a-hexahydro-5H-cyclopenta[4,5]imidazo[1,2-a]quinazoline-3-sulfonamide]",< 0.1
15,"Cn1ncc(C#C[C@@H]2CN=C3N(Cc4cnn5c4CNCC5)C(=O)c4cc(S(=O)(=O)NC5(C)CC5)ccc4N32)n1 [Example 288, (R)-1-((2-methyl-2H-1,2,3-triazol-4-yl)ethynyl)-N-(1-methylcyclopropyl)-5-oxo-4-((4,5,6,7-tetrahydropyrazolo[1,5-a]pyrazin-3-yl)methyl)-1,2,4,5-tetrahydroimidazo[1,2-a]quinazoline-7-sulfonamide]",< 0.1
16,"CC1(NS(=O)(=O)c2ccc3c(c2)C(=O)N(Cc2cnn4c2CNCC4)C2=N[C@H]4CCC[C@H]4N23)CC1 [Example 290, (7aS,10aR)-N-(1-methylcyclopropyl)-5-oxo-6-((4,5,6,7-tetrahydropyrazolo[1,5-a]pyrazin-3-yl)methyl)-6,7a,8,9,10,10a-hexahydro-5H-cyclopenta[4,5]imidazo[1,2-a]quinazoline-3-sulfonamide]",0.1 to 1

# Next, values leading:
row,IC50 [µM],SMILES
1,< 0.1,"[2H]C([2H])(c1cnn(C)c1)N1C(=O)c2cc(S(=O)(=O)NC3(C)CC3)ccc2N2C1=NC[C@H]2C#Cc1cncnc1N [Example 268, (R)-1-((4-aminopyrimidin-5-yl)ethynyl)-4-((1-methyl-1H-pyrazol-4-yl)methyl-d2)-N-(1-methylcyclopropyl)-5-oxo-1,2,4,5-tetrahydroimidazo[1,2-a]quinazoline-7-sulfonamide]"
2,0.1 to 1,"COc1ccc(CN2C(=O)c3cc(S(=O)(=O)NC4(C)CC4)ccc3N3C2=N[C@H]2CCC[C@H]23)cn1 [Example 273, (7aS,10aR)-6-((6-methoxypyridin-3-yl)methyl)-N-(1-methylcyclopropyl)-5-oxo-6,7a,8,9,10,10a-hexahydro-5H-cyclopenta[4,5]imidazo[1,2-a]quinazoline-3-sulfonamide]"
3,< 0.1,"CN1CCC[C@H]1[C@@H]1CN=C2N(Cc3cnn(C)c3)C(=O)c3cc(S(=O)(=O)NC4(C)CC4)ccc3N21 [Example 276, (S)-4-((1-methyl-1H-pyrazol-4-yl)methyl)-N-(1-methylcyclopropyl)-1-((S)-1-methylpyrrolidin-2-yl)-5-oxo-1,2,4,5-tetrahydroimidazo[1,2-a]quinazoline-7-sulfonamide]"
4,< 0.1,"[2H]C([2H])(c1cnn(C)c1)N1C(=O)c2cc(S(=O)(=O)NC3(C)CC3)ccc2N2C1=NC[C@H]2C#CC1=CCOCC1 [Example 282, (R)-1-((3,6-dihydro-2H-pyran-4-yl)ethynyl)-4-((1-methyl-1H-pyrazol-4-yl)methyl-d2)-N-(1-methylcyclopropyl)-5-oxo-1,2,4,5-tetrahydroimidazo[1,2-a]quinazoline-7-sulfonamide]"
5,1 to 10,"[2H]C([2H])(c1cnn(C)c1)N1C(=O)c2cc(S(=O)(=O)NC3(C)CC3)ccc2N2C1=N[C@@H]1C[C@@H](N)C[C@@H]12 [Example 283, (7aR,9R,10aS)-9-amino-6-((1-methyl-1H-pyrazol-4-yl)methyl-d2)-N-(1-methylcyclopropyl)-5-oxo-6,7a,8,9,10,10a-hexahydro-5H-cyclopenta[4,5]imidazo[1,2-a]quinazoline-3-sulfonamide]"
6,< 0.1,"[2H]C([2H])(c1cnn(C)c1)N1C(=O)c2cc(S(=O)(=O)NC3(C)CC3)c(F)cc2N2C1=NC[C@H]2C#C [Example 289, (R)-1-ethynyl-8-fluoro-4-((1-methyl-1H-pyrazol-4-yl)methyl-d2)-N-(1-methylcyclopropyl)-5-oxo-1,2,4,5-tetrahydroimidazo[1,2-a]quinazoline-7-sulfonamide]"
7,0.1 to 1,"CC(=O)N1CCn2ncc(CN3C(=O)c4cc(S(=O)(=O)NC5(C)CC5)ccc4N4C3=N[C@H]3CCC[C@H]34)c2C1 [Example 291, (7aS,10aR)-6-((5-acetyl-4,5,6,7-tetrahydropyrazolo[1,5-a]pyrazin-3-yl)methyl)-N-(1-methylcyclopropyl)-5-oxo-6,7a,8,9,10,10a-hexahydro-5H-cyclopenta[4,5]imidazo[1,2-a]quinazoline-3-sulfonamide]"
